Measured values reported in ChEMBL document CHEMBL1201862, “PubChem BioAssay data set” (2004).
Structures can show the parent of a compound that is named as a salt.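 These data come from cells grown in 96-well plates and exposed to compound for 48 hours at five concentrations. Abbreviation: GI50, concentration required for 50% inhibition of growth.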 Calls of active or inactive are those of the source. No stated cut-off is given here; in the data, active = GI50 up to about 1.1 µM and inactive = higher.

How the values were obtained:
Assay in all cases: NCI anticancer screen, dose series, 48 h
[1] = test system: ACHN
[2] = test system: CAKI-1
[3] = test system: CCRF-CEM
[4] = test system: DU-145
[5] = test system: HOP-92
[6] = test system: K562
[7] = test system: MDA-MB-231
[8] = test system: MDA-MB-435
[9] = test system: MOLT-4
[10] = test system: NCI-H460
[11] = test system: NCI/ADR-RES
[12] = test system: RPMI-8226
[13] = test system: RXF 393
[14] = test system: SF-268
[15] = test system: SF-539
[16] = test system: SN12C
[17] = test system: SNB-75
[18] = test system: SW-620
[19] = test system: MDA-N

SMILES | GI50 [1] | GI50 [2] | GI50 [3] | GI50 [4] | GI50 [5] | GI50 [6] | GI50 [7] | GI50 [8] | GI50 [9] | GI50 [10] | GI50 [11] | GI50 [12] | GI50 [13] | GI50 [14] | GI50 [15] | GI50 [16] | GI50 [17] | GI50 [18] | GI50 [19]
COc1cc2nc(-c3cccs3)oc(=O)c2cc1OC | > 100 µM (inactive) | > 100 µM (inactive) | > 100 µM (inactive) | > 100 µM (inactive) | > 100 µM (inactive) | > 100 µM (inactive) | 74.8 µM (inactive) | > 100 µM (inactive) | > 100 µM (inactive) | > 100 µM (inactive) | 51.2 µM (inactive) | > 100 µM (inactive) | > 100 µM (inactive) | 61.7 µM (inactive) | 57.3 µM (inactive) | > 100 µM (inactive) | > 100 µM (inactive) | > 100 µM (inactive) | 
N=C(N)N/N=C\c1c(-c2cccc([N+](=O)[O-])c2)nc2sc(Cl)cn12 | 29.2 µM (inactive) | 2.33 µM (inactive) | 1.26 µM (inactive) | 2.48 µM (inactive) | 3.16 µM (inactive) | 0.575 µM (active) | 2.74 µM (inactive) | 2.07 µM (inactive) | 2 µM (inactive) | 2.67 µM (inactive) | > 100 µM (inactive) | 2.22 µM (inactive) | 2.19 µM (inactive) | 3.06 µM (inactive) | 2.6 µM (inactive) | 2.6 µM (inactive) | 1.52 µM (inactive) | 3.18 µM (inactive) | 
O=C(/C=C/c1ccccc1)NNC(=O)c1c(Cl)c(Cl)c(Cl)c(Cl)c1-c1nc2ccccc2[nH]1 | 32.5 µM (inactive) | 33.3 µM (inactive) | 27 µM (inactive) | 28.6 µM (inactive) | 18.7 µM (inactive) | 25.2 µM (inactive) |  | 15.7 µM (inactive) | 32.4 µM (inactive) | 23.7 µM (inactive) | 23.2 µM (inactive) | 26.9 µM (inactive) | 18.8 µM (inactive) | 51.8 µM (inactive) | 22.3 µM (inactive) | 21.6 µM (inactive) | 18.2 µM (inactive) | 33.3 µM (inactive) | 11.3 µM (inactive)
C/C(=C\CO)CC/C=C(\C)CNc1ccc([N+](=O)[O-])cc1 | 80.4 µM (inactive) | 80.5 µM (inactive) |  | 50.4 µM (inactive) |  | 15 µM (inactive) | 26.2 µM (inactive) | 28.6 µM (inactive) | 1.93 µM (inactive) | > 100 µM (inactive) | 22 µM (inactive) |  | > 100 µM (inactive) | 63.5 µM (inactive) | 28.6 µM (inactive) | 60.8 µM (inactive) | 0.0219 µM (active) | 56.1 µM (inactive) | 
COC(=O)CCC1(CCC(=O)OC)CCCCCCC(CCC(=O)OC)(CCC(=O)OC)C(=O)C1=O | > 100 µM (inactive) | > 100 µM (inactive) |  | > 100 µM (inactive) | 54.6 µM (inactive) | 23.6 µM (inactive) |  | > 100 µM (inactive) |  | 93.8 µM (inactive) | 81.5 µM (inactive) | < 0.01 µM (active) | > 100 µM (inactive) | > 100 µM (inactive) | > 100 µM (inactive) | > 100 µM (inactive) | 49.1 µM (inactive) |  | > 100 µM (inactive)
C=CCN1C(=O)CC1N(CC=C)S(=O)(=O)c1ccc(C)cc1 (stereo not given) | > 100 µM (inactive) | > 100 µM (inactive) | > 100 µM (inactive) | > 100 µM (inactive) | > 100 µM (inactive) | 98.4 µM (inactive) |  | > 100 µM (inactive) | > 100 µM (inactive) | > 100 µM (inactive) | > 100 µM (inactive) | > 100 µM (inactive) | > 100 µM (inactive) |  |  | 61.7 µM (inactive) |  | > 100 µM (inactive) | > 100 µM (inactive)
OC1(c2ccccc2)CCCCCCCCC(O)(c2ccccc2)CCCCCCCC1 (stereo not given) | > 100 µM (inactive) | > 100 µM (inactive) |  | > 100 µM (inactive) | > 100 µM (inactive) | > 100 µM (inactive) |  | > 100 µM (inactive) |  | > 100 µM (inactive) | > 100 µM (inactive) |  | > 100 µM (inactive) | > 100 µM (inactive) | > 100 µM (inactive) | > 100 µM (inactive) | > 100 µM (inactive) | > 100 µM (inactive) | > 100 µM (inactive)
O=S(=O)(Oc1ccc2ccccc2c1-c1c(OS(=O)(=O)C(F)(F)F)ccc2ccccc12)C(F)(F)F | 2.75 µM (inactive) | > 100 µM (inactive) | 29.3 µM (inactive) |  | 12.5 µM (inactive) | 16.9 µM (inactive) | 42.7 µM (inactive) | 45.5 µM (inactive) | 12.8 µM (inactive) | 20 µM (inactive) | 84.5 µM (inactive) | 27.5 µM (inactive) | 43.4 µM (inactive) | > 100 µM (inactive) | > 100 µM (inactive) |  | > 100 µM (inactive) | > 100 µM (inactive) | 
CCCCCCc1cc2cc(-c3csc(-c4ccc(OC)cc4)n3)c(=O)oc2cc1O | 10.9 µM (inactive) | 6.73 µM (inactive) | 22.6 µM (inactive) | 11.7 µM (inactive) | 3.57 µM (inactive) | 19.3 µM (inactive) | 11 µM (inactive) | 4.9 µM (inactive) | 24.3 µM (inactive) | 12.2 µM (inactive) |  | 33.8 µM (inactive) | 13.1 µM (inactive) | 4.79 µM (inactive) | 12.8 µM (inactive) | 10.4 µM (inactive) | 14.7 µM (inactive) | 6.61 µM (inactive) | 
CP(=O)(O)C(N)c1ccccc1 (stereo not given) | > 100 µM (inactive) | > 100 µM (inactive) | > 100 µM (inactive) | > 100 µM (inactive) | > 100 µM (inactive) | > 100 µM (inactive) |  | > 100 µM (inactive) | > 100 µM (inactive) | > 100 µM (inactive) | > 100 µM (inactive) | > 100 µM (inactive) |  | > 100 µM (inactive) |  | > 100 µM (inactive) |  | > 100 µM (inactive) | > 100 µM (inactive)
O=C(O)Cc1ccc(Nc2nc3ccccc3nc2C(=O)O)cc1 | > 100 µM (inactive) | > 100 µM (inactive) | > 100 µM (inactive) | > 100 µM (inactive) | > 100 µM (inactive) |  |  | > 100 µM (inactive) | > 100 µM (inactive) | > 100 µM (inactive) | > 100 µM (inactive) |  | > 100 µM (inactive) | > 100 µM (inactive) | > 100 µM (inactive) | > 100 µM (inactive) | > 100 µM (inactive) | > 100 µM (inactive) | > 100 µM (inactive)
CCCCCCCC(=O)OCC1OC(n2cc(F)c(=O)[nH]c2=O)C(N)C(O)C1O (stereo not given) | > 100 µM (inactive) | > 100 µM (inactive) | > 100 µM (inactive) |  | > 100 µM (inactive) | > 100 µM (inactive) |  |  | > 100 µM (inactive) | > 100 µM (inactive) |  | > 100 µM (inactive) | > 100 µM (inactive) | > 100 µM (inactive) | > 100 µM (inactive) | > 100 µM (inactive) | > 100 µM (inactive) | > 100 µM (inactive) | 
CC(C)(C)c1ccc(C(C)(C)C)c(N2C(=O)C3ON=C(c4ccc([N+](=O)[O-])cc4)C3C2=O)c1 (stereo not given) | 15.2 µM (inactive) | > 25 µM (inactive) | > 25 µM (inactive) | 10.8 µM (inactive) | 9.46 µM (inactive) | 11 µM (inactive) |  | 8.77 µM (inactive) | > 25 µM (inactive) | 6.75 µM (inactive) | 17.3 µM (inactive) | 10 µM (inactive) | 15.1 µM (inactive) | 13.7 µM (inactive) | > 25 µM (inactive) | > 25 µM (inactive) | 5.07 µM (inactive) | 16.2 µM (inactive) | 7.38 µM (inactive)
CON(C)C(=O)C(Cc1ccccc1)NC(=O)OC(C)(C)C (stereo not given) | > 100 µM (inactive) |  | > 100 µM (inactive) | > 100 µM (inactive) | > 100 µM (inactive) | > 100 µM (inactive) |  | > 100 µM (inactive) | > 100 µM (inactive) | > 100 µM (inactive) | > 100 µM (inactive) | > 100 µM (inactive) | > 100 µM (inactive) | > 100 µM (inactive) | > 100 µM (inactive) | > 100 µM (inactive) | > 100 µM (inactive) | > 100 µM (inactive) | > 100 µM (inactive)
Nc1nc(CCc2n[nH]c(N)n2)n[nH]1 | > 100 µM (inactive) | > 100 µM (inactive) | > 100 µM (inactive) |  | > 100 µM (inactive) | > 100 µM (inactive) |  |  | > 100 µM (inactive) | > 100 µM (inactive) |  | > 100 µM (inactive) | > 100 µM (inactive) | > 100 µM (inactive) | > 100 µM (inactive) | > 100 µM (inactive) | > 100 µM (inactive) | > 100 µM (inactive) | 
O=C(CCCN1CCC(O)(c2ccc(Cl)cc2)CC1)c1ccc(F)cc1 [HALOPERIDOL] | 39.4 µM (inactive) | 10.1 µM (inactive) | 41.4 µM (inactive) | 85.1 µM (inactive) | 48.2 µM (inactive) | > 100 µM (inactive) | 22 µM (inactive) | 17.5 µM (inactive) | 89.7 µM (inactive) | 18.8 µM (inactive) | 30.1 µM (inactive) | 25.1 µM (inactive) |  | 48.2 µM (inactive) | 26.1 µM (inactive) | 37.7 µM (inactive) | 23.8 µM (inactive) | 18.2 µM (inactive) | 
CC(CN1c2ccccc2Sc2ccccc21)N(C)C (stereo not given) [PROMETHAZINE HYDROCHLORIDE] | 17 µM (inactive) | 18.5 µM (inactive) | 20.3 µM (inactive) | 19.4 µM (inactive) | 17.1 µM (inactive) | 17.3 µM (inactive) | 17.9 µM (inactive) | 16.9 µM (inactive) | 19.8 µM (inactive) | 17.9 µM (inactive) | 15.8 µM (inactive) |  | 20.8 µM (inactive) | 17.5 µM (inactive) | 19.1 µM (inactive) | 15.3 µM (inactive) | 3.78 µM (inactive) | 23.6 µM (inactive) | 
